Measured values taken from a melting point compilation (Tetko et al.; mined from patent text by program, amines drawn as free bases though some values may be those of a salt).

Row | SMILES | melting point [°C]
1 | COc1cccc(C=CCN2CCc3nc(N)sc3CC2)c1 | 120 to 124
2 | O=C(Nc1ccc(C(F)(F)F)cc1)c1ccccc1NCc1ccncc1 | 171 to 175
3 | OC1(c2ccc(Br)cc2)c2ccccc2C2=NCCN21 (stereo not drawn) | 194 to 196
4 | Cc1ccc(S(=O)(=O)OC2=C(Br)C(=O)c3ccc4c(c3C2=O)C=CC(C)(C)O4)cc1 | 182 to 184
5 | Cc1ccc(CC(CS)C(=O)Nc2cccc(C(=O)O)c2)cc1 (stereo not drawn) | 188 to 190
6 | COc1ccc(NC(=O)c2ccc3c(c2)C(C)(C)C(=O)N3)cc1 | 169 to 171
7 | Cn1nc2ccc3nc(O)c(O)nc3c2n1 | > 300
8 | O=[N+]([O-])c1ccc(Oc2ccc3c(c2)OCC(c2ccccc2)O3)nc1 (stereo not drawn) | 163 to 170
9 | Cc1ccccc1Cn1c(OCc2ccccc2)noc1=O | 77 to 78
10 | CCOC(=O)c1cnn2c1nc(OCCCN(C)C)c1cnc3c(cnn3CC)c12 | 106 to 107
11 | COc1cc(C(=O)c2ccccc2)cc(C#N)c1OC | 98 to 100
12 | N#CCN1CCN(c2n[nH]c3ccccc23)CC1 | 121 to 123
13 | CCOC(=O)/C=C/c1cn(Cc2ccccc2)nc1OCc1ccc(OCc2nc(-c3ccco3)oc2C)c(OC)c1 | 147 to 148
14 | O=C(O)Cc1cc(=O)n(Cc2ccc(Cl)cc2)c2ccc([N+](=O)[O-])cc12 | 217 to 219
15 | COc1ccc(N2CCN(Cc3n[nH]c4c(Cl)cccc34)CC2)cc1 | 190 to 191
16 | CC1(c2ccc3c(c2)C(c2ccccc2)=NCC(=C[N+](=O)[O-])N3)OCCO1 | 158 to 161
17 | CC(=O)Oc1cc2c(s1)C(N1CCCC1=O)CC(C)(C)O2 (stereo not drawn) | 92 to 93
18 | Cc1cc2c(cc1-c1c[nH]c(C=CC(=O)O)c1)C(C)(C)CCC2(C)C | 245 to 246
19 | COC(=O)Nc1ccccc1-c1c(C(=O)OC)c2cc(OC)c(OC)cc2c(=O)n1C | 165 to 170
20 | CSc1nn(-c2c(Cl)cc(C(F)(F)F)cc2Cl)c(C)c1C(=O)c1cccc(C)c1 | 103 to 104
21 | CC(=O)Nc1ccc(C(=O)c2cc(-c3ccc(Cl)cc3)c(N3CCOCC3)s2)cc1 | 125 to 127
22 | Cc1cc(Cl)c(C)c(S(=O)(=O)Nc2onc(C)c2Br)c1 | 148 to 150
23 | CC(C)C1(C)N=C(c2c(C(=O)O)ccc3ccsc23)NC1=O (stereo not drawn) | 200 to 202
24 | O=[N+]([O-])c1ccc2nc(Cl)[nH]c2c1 | 235 to 237
25 | CCc1cc2c(s1)-n1c(C)nnc1C(CCCC(=O)Nc1ccccc1)N=C2c1ccc(Cl)cc1 (stereo not drawn) | 238 to 240

Row | SMILES | melting point [°C]
26 | CS(=O)(=O)c1ccc(-c2cc(CO)nn2C2CCCCC2)cc1 | 148
27 | COC(=O)c1ccc(/C=C(\C)c2ccc3c(c2)SC(C)(C)S3)cc1 | 86 to 87
28 | Fc1ccc(-c2cnn(CCC#Cc3ccccn3)n2)cc1 | 83.5 to 84.5
29 | Sc1nnc(-c2ccc3[nH]ncc3c2)o1 | 283 to 284
30 | Cc1cc2c(cc1OCCn1ccnc1)CC/C(=C\c1cccs1)C2=O | 150 to 151
31 | Cc1cc(=O)c(C(=O)Nc2nnc(C)s2)c(C)o1 | 203 to 204
32 | O=C(Cc1cccs1)NCCCSc1ccncc1 | 62 to 63
33 | CC/C(=C(\c1ccc(/C=C/C(=O)O)cc1)c1ccc(OP(=O)(O)O)cc1)c1ccccc1 | 181 to 183
34 | Fc1ccc2c(-c3ccc(OC[C@H]4CO4)cc3)noc2c1 | 132 to 133
35 | CS(=O)(=O)c1ccc(Oc2ccc(Cl)c(Cl)c2)c(C#N)c1 | 162 to 163
36 | O=C(OCc1ccccc1)C(=C1NCCCS1)[N+](=O)[O-] | 78 to 79
37 | COc1ccc(CNc2nnc(N3CCC(O)C3)c3ccc(Cl)cc23)cc1Cl (stereo not drawn) | 191 to 193
38 | CCCOc1ccc(S(=O)(=O)C(C)(C)C)cc1C(N)=O | 215 to 218
39 | CCC(C(C)=CC(CNC(=O)c1nc(C)[nH]c1C)=NO)[N+](=O)[O-] (stereo not drawn) | 140 to 141
40 | N#CSCC(Br)=C(Br)CBr | 89 to 91
41 | CCCCc1nc(C(C)(C)O)c(C#N)[nH]1 | 171 to 172
42 | NC(=NO)c1nn([C@@H]2O[C@H](CO)[C@@H](O)[C@H]2O)c2ncnc(N)c12 | 242 to 244
43 | O=c1c2c(CC3CCCCC3)n[nH]c2c2cccnc2n1-c1ccccc1 | 280 to 281
44 | Oc1ccc2c(-c3nc4ccc(O)cc4o3)cccc2c1 | 273 to 275
45 | O=C1OC2CCC1OC2 (stereo not drawn) | 56 to 57
46 | CCc1nc2c(cnn2CC)c(NC2CCOCC2)c1CNC(=O)c1cccc(C(=O)NCc2ccc(Cl)c(-c3cccc(CN4CC(C)NC(C)C4)c3)c2)c1 (stereo not drawn) | 121 to 124
47 | Cc1noc(NS(=O)(=O)c2ccccc2-c2ccc(C(F)(F)F)cc2)c1C | 57 to 62
48 | CCC(C(=O)c1ccc(Cl)cc1)n1ncn(-c2ccc(N3CCN(c4ccc(O)cc4)CC3)cn2)c1=O (stereo not drawn) | 186
49 | CC(c1cccnc1)c1c[nH]c(=S)[nH]c1=O (stereo not drawn) | 225 to 228

More lines, now with the values ahead:

Row | melting point [°C] | SMILES
50 | 200 to 201 | Cn1cc(C(=S)NCc2ccc(Cl)cc2)c(=O)c2cc(C#CCO)ccc21
51 | 197 to 200 | CNC(=S)N1CCN(c2cnccn2)CC1
52 | 118 to 119 | CCCOc1ccccc1-c1nc2nc(CC)ncc2c(=O)[nH]1
53 | 226 to 228 | Nc1ncc(-c2cccnc2)cc1[N+](=O)[O-]
54 | 112 to 113 | CCCc1nc2c(N)nc3ccccc3c2n1CCCCCC(=O)OCC
55 | 105 to 106 | CCC(C)N1C(=O)c2ccc(C)nc2C1=O (stereo not drawn)
56 | 180 to 185 | CCCNC(C)=C1C(=O)OC(=O)C(C(=O)C=Cc2cccc(OC)c2OC)=C1O
57 | 151 to 156 | COC(=O)/C(=C/C1CCCCCC1)c1ccc(S(C)(=O)=O)c(C(F)(F)F)c1
58 | 250 to 252 | CC(CC(=O)O)C(=O)c1ccc(-n2ccc(=O)cc2)cc1 (stereo not drawn)
59 | 190 to 191 | NC1=CC(=O)CC(c2ccccc2)C1 (stereo not drawn)
60 | 218 | NS(=O)(=O)c1ccc(N2CCN(CC3OCCc4ccccc43)CC2)cc1 (racemic)
61 | 242 to 246 | Cn1c(=S)n(C)c(=O)n(-c2cc(O)c(Cl)cc2F)c1=O
62 | 105 to 107 | Oc1cc(-c2ncc(C(F)(F)F)cc2Cl)ccc1Cl
63 | 197 | N#CC(C(=O)c1ccc(NS(=O)(=O)C(F)(F)F)cc1)=C1CCCCN1
64 | 117 to 118 | COC(=O)CCCc1cc2nc(Cl)ccc2n1S(=O)(=O)c1ccc(I)cc1
65 | 114 to 116 | CCn1nc(OCCCc2ccc(OCCOC)cc2OCc2ccc(Cl)cc2Cl)cc1CCC(=O)O
66 | 90 to 93 | O=C(c1ccccc1)c1ccccc1N1C=NC(CCl)(C(=O)O)N1 (stereo not drawn)
67 | 224 to 226 | O=CNNc1ccccc1NC(=S)Nc1ccccc1
68 | 136 to 137 | CCOc1cc(C)ccc1S(N)(=O)=O
69 | 63 to 65 | CCCCCCCCCCCC(=O)N1CCOC1=O
70 | > 300 | NC(N)=Nc1nc(-c2nc(N)sc2C=NS(N)(=O)=O)cs1
71 | 119 to 123 | CCOC(=O)Nc1ccc2c3c(n(CCCN(C)C)c2c1)CCCCCC3
72 | 81 to 85 | CC(Cc1c[nH]c2ccccc12)(NS(=O)(=O)CC12CCC(CC1=O)C2(C)C)C(=O)NC(CO)Cc1ccccc1 (stereo not drawn)
73 | 121 to 122 | C=CS(=O)(=O)C(C)(C)S(=O)(=O)C=C
74 | 177 to 181 | CC(=O)NCCOC1=C2C=C(S(N)(=O)=O)SC2S(=O)(=O)CC1 (stereo not drawn)
75 | 123 to 124 | CCOC(=O)C1CCc2c([nH]c3ccc(N)cc23)C1 (stereo not drawn)
76 | 196 to 197 | O=C(NCc1ccccc1F)[C@@H]1CCCN(c2cccc3c2C(=O)N(Cc2ccncc2)C3=O)C1

Row | melting point [°C] | SMILES
77 | 150 to 151 | CC(C)=CCc1c(O)ccc(C(=O)C=Cc2ccc(O)cc2O)c1O
78 | 91 to 93 | COCOc1ccc(CO)c2cccc(C)c12
79 | 159 to 160 | COc1cc(Cl)c2c(=O)c(-c3ccccc3C)coc2c1
80 | 35 to 37 | CCCCCCCCCCCc1ccc(F)c(-c2nc(-c3ccccc3Cl)nn2C)c1
81 | 104 | Cc1ccc(-c2nc(Cl)cc(N3CCN(CCO)CC3)n2)cc1
82 | 204 to 207 | O=C(O)CN1C(=O)C(=Cc2ccc(OCc3ccccc3)c(OCc3ccccn3)c2)SC1=S
83 | 125 | CCCN(CCc1c[nH]c2ccc(F)cc12)C1COc2c(F)ccc(C(N)=O)c2C1 (stereo not drawn)
84 | 144 to 146 | O=S(=O)(NCCCCOc1ccc(-n2ccnc2)cc1)c1cc(Cl)ccc1Cl
85 | 129 to 130 | CON(C)C(=O)C(Cc1c[nH]c2ccccc12)NC(=O)OC(C)(C)C (stereo not drawn)
86 | 138 to 140 | Cc1ccc(C23CC(C2)C(=O)N(C)C3=O)cc1
87 | 94 to 97 | CN(CCC1CCN(c2noc3cc(F)ccc23)CC1)C(=O)c1noc2ccccc12
88 | 118 to 119 | c1ccc(Cc2cnc(-c3ccccc3)c(-c3ccccc3)n2)cc1
89 | 73 to 75.5 | OCCN1CCN(CC2CNCCO2)CC1 (stereo not drawn)
90 | 175 to 180 | CC=C(C)c1c(-c2ccc(S(C)(=O)=O)cc2)cnn(CC(F)(F)F)c1=O
91 | 74 | COC(=O)c1ccc([N+](=O)[O-])s1
92 | 110 | Cc1ccc(N)c(C(O)(C(F)(F)F)C(F)(F)F)c1
93 | 225 to 230 | CC(C)C(/C=C/C(=O)O)=C(c1ccc(F)cc1)c1ccc(F)cc1
94 | 191 to 192 | CC[C@@]12C[C@H](O)[C@](O)(c3ccccc3)C[C@H]1CCc1cc(O)ccc12
95 | 191 | COc1cc(CNc2ccc3c(c2)N2CCCN=C2S3)cc(OC)c1OC
96 | 130 to 131 | CCC(CC)c1ccc(OC)c2nc(Oc3c(C)cc(Cl)cc3Cl)n(C)c12
97 | 174 to 176 | COc1ccc(-c2cc(C(=O)Nc3cccc(F)n3)c3ccccc3n2)cc1
98 | 99 to 103 | COC(=O)c1ccc(C)nc1Oc1nc(OC)cc(OC)n1
99 | 158 to 159 | O=C(CCCCCCNC(=O)C(=O)c1cn2c3c(cccc13)CCC2)NO
100 | 216 to 220 | CN(Cc1ccc(NC(=O)/C=C/c2ccc(-c3ccc(C(C)(C)C)cc3)s2)cc1)C1CCOCC1
101 | 164 to 166 | O=C1N(Cc2ccc3nonc3c2)c2ccccc2C12COc1cc3c(cc12)OCCO3 (stereo not drawn)
102 | 134 to 136 | CO[C@@H]1O[C@H](C(N)=O)[C@H]2OC(C)(C)O[C@@H]12
103 | 168 to 170 | O=C(O)c1cc(F)cc(-c2cccc3cc(Cc4cc(F)cc(Cl)c4)sc23)c1
